The source of these data is US10174037B2, “Dihydropyrazolopyrimidinone compounds as PDE2 inhibitors” (Merck Sharp & Dohme Corp., priority 2015, dated 2019).

One assay concerns the target Rhesus PDE2A3 (Macaca mulatta, UniProt B3VTJ2). Put plainly: PDE2 fluorescence polarization (IMAP FP) assay, rhesus PDE2A3. It counts as biochemical, rhesus macaque. The following applies: Lab B.
A further assay has as its target human PDE2A1 (Homo sapiens (Human), UniProt O00408). Put plainly: PDE selectivity IMAP FP assay, human PDE2A1. To be noted: Human PDE2; Lab B; read-out: Human PDE2 Ki (nM) Lab B. The assay is classed as biochemical. The procedure, abridged: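 IMAP fluorescence polarization assay; PDE2 substrate 50 nM FAM-cAMP containing 1000 nM cGMP, enzyme diluted for 20% substrate conversion, in 10 mM Tris HCl pH 7.2, 10 mM MgCl2, 1 mM DTT. Reaction 60 min at room temperature, stopped with IMAP binding solution; polarization read after 1 h. Ki reported.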

[1] abbreviates: read-out: Rhesus PDE2 Ki (nM) Lab B.

Each structure is given as a SMILES string. Like-named read-outs stand apart in the source and are kept apart here.

Chain of Rhesus PDE2A3 (B3VTJ2 1-941): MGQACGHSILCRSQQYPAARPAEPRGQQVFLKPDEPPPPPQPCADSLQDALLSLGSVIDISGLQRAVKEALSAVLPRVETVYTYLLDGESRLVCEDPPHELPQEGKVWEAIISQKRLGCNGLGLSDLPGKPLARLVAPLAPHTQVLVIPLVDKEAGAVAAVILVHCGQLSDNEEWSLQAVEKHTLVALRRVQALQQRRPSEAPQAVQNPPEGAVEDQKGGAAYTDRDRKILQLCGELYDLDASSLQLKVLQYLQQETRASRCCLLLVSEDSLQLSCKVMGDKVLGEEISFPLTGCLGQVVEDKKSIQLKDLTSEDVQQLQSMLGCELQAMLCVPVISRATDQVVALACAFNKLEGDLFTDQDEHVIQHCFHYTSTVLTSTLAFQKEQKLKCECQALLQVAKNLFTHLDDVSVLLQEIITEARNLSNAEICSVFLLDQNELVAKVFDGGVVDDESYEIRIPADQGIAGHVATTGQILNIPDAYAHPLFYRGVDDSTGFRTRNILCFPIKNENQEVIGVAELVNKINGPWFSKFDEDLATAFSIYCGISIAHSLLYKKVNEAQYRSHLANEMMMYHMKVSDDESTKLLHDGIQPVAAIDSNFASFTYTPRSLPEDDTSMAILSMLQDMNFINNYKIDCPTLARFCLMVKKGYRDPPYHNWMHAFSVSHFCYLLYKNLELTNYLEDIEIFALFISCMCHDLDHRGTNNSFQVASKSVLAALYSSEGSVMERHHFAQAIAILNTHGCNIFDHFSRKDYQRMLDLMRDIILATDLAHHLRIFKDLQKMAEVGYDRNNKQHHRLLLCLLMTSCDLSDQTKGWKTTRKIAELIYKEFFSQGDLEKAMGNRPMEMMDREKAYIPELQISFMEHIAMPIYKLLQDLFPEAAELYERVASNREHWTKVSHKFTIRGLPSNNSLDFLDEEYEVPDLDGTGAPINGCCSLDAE
Chain of human PDE2A1 (O00408 other isoform, or with tags, fused parts or gaps): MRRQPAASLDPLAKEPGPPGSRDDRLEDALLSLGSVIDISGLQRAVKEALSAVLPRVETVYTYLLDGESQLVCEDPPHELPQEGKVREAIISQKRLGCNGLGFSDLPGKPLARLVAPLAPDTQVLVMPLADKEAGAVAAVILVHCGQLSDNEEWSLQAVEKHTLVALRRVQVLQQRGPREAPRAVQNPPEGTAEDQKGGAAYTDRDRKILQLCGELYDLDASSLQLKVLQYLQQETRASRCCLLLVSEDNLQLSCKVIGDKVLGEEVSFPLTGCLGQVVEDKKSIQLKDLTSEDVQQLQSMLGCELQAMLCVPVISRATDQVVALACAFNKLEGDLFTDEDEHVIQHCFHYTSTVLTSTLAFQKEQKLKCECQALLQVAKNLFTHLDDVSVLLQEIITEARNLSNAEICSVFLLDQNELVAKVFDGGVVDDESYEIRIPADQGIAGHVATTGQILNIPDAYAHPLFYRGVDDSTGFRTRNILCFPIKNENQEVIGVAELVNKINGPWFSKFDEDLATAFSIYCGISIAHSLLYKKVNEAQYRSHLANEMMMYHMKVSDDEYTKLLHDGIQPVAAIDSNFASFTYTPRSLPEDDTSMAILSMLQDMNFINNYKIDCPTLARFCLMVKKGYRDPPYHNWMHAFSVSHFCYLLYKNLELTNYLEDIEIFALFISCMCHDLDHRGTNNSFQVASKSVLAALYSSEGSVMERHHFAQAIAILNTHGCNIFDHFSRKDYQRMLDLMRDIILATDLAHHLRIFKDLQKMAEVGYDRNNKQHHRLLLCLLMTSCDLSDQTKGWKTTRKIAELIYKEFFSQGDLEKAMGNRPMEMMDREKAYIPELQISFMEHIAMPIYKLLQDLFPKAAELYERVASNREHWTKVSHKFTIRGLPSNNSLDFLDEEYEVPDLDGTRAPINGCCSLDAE

For `CC(C)C(c1ccc(OC(F)(F)F)cc1)n1nc(CF)c2c(=O)[nH]c(O)nc21` (single isomer, unassigned) [Example 42, (R)- or (S)-3-(Fluoromethyl)-6-hydroxy-1-(2-methyl-1-(4-(trifluoromethoxy)phenyl)propyl)-1H-pyrazolo[3,4-d]pyrimidin-4(5H)-one], the inhibition constant (Ki) was determined as 16 nM at Rhesus PDE2A3 (Rhesus PDE2 Ki (nM) Lab B) and 14 nM on human PDE2A1.
Consider `CC(C)C(c1ccc(OC(F)(F)F)cc1)n1nc(CF)c2c(=O)[nH]c(O)nc21` (single isomer, unassigned) [Example 43, (S)- or (R)-3-(Fluorornethyl)-6-hydroxy-1-(2-methyl-1-(4-(trifluoromethoxy)phenyl)propyl)-1H-pyrazolo[3,4-d]pyrimidin-4(5H)-one], for which the inhibition constant (Ki) was found to be 4.7 nM at Rhesus PDE2A3 (setting [1]) and 5.3 nM on human PDE2A1.
With `O=c1[nH]c(O)nc2c1c(CF)nn2C(c1ccc(OC(F)(F)F)c(F)c1)C1CC1` (single isomer, unassigned) [Example 44], the values for the inhibition constant (Ki) at Rhesus PDE2A3 (setting [1]) and on human PDE2A1 were 9.8 nM and 10 nM, respectively.
Take `O=c1[nH]c(O)nc2c1c(CF)nn2C(c1ccc(OC(F)(F)F)c(F)c1)C1CC1` (single isomer, unassigned) [Example 45]: the inhibitory constant (Ki) on Rhesus PDE2A3 (setting [1]) was 29 nM; at human PDE2A1 it was 28 nM.
`CC(C)C(c1ccc(C(F)(F)F)c(F)c1)n1nc(CF)c2c(=O)[nH]c(O)nc21` (single isomer, unassigned) [Example 55]: the results for the inhibitory constant (Ki) at Rhesus PDE2A3 (setting [1]) and at human PDE2A1 were 1.3 nM and 0.96 nM, respectively.
For `CC(C)C(c1ccc(C(F)(F)F)c(F)c1)n1nc(CF)c2c(=O)[nH]c(O)nc21` (single isomer, unassigned) [Example 56], the Ki worked out at 36 nM at Rhesus PDE2A3 (setting [1]) and 37 nM at human PDE2A1.
The matching figures for `CN(C)c1nc2c(c(CO)nn2C(c2ccc(C(F)F)cc2)C2CC2)c(=O)[nH]1` (single isomer, unassigned) [Example 62]: 0.28 nM and 0.27 nM.
Take `CC(C)C(c1ccc(C(F)(F)F)cc1)n1nc(CO)c2c(=O)[nH]c(N(C)C)nc21` (single isomer, unassigned) [Example 64, (R)- or (S)-6-Dimethylamino)-3-(hydroxymethyl)-1-(2-methyl-1-(4-(trifluoromethyl)phenyl)propyl)-1H-pyrazolo[3,4-d]pyrimidin-4(5H)-one]: the Ki at Rhesus PDE2A3 (setting [1]) is 0.39 nM; at human PDE2A1, 0.29 nM.
For `CC(C)C(c1ccc(C(F)(F)F)cc1)n1nc(CO)c2c(=O)[nH]c(N(C)C)nc21` (single isomer, unassigned) [Example 65, (S)- or (R)-6-Dimethylamino)-3-(hydroxymethyl)-1-(2-methyl-1-(4-(trifluoromethyl)phenyl)propyl)-1H-pyrazolo[3,4-d]pyrimidin-4(5H)-one], the inhibitory constant (Ki) on Rhesus PDE2A3 (setting [1]) worked out at 0.076 nM; at human PDE2A1, 0.069 nM.
Turning to `CC(c1ccc(C(C)(C)C)cc1)n1nc(CO)c2c(=O)[nH]c(N(C)C)nc21` (single isomer, unassigned) [Example 66, (R)- or (S)-1-(1-(4-tert-Butylphenyl)ethyl)-6-(dimethylamino)-3-(hydroxymethyl)-1H-pyrazolo[3,4-d]pyrimidin-4(5H)-one], the Ki was 12 nM at Rhesus PDE2A3 (setting [1]) and 6.1 nM on human PDE2A1.
Consider `CC(c1ccc(C(F)(F)F)c(F)c1)n1nc(CO)c2c(=O)[nH]c(N(C)C)nc21` (single isomer, unassigned) [Example 68, (R)- or (S)-6-(Dimethylamino)-1-(1-(3-fluoro-4-(trifluoromethyl)phenyl)ethyl)-3-(hydroxymethyl)-1H-pyrazolo[3,4-d]pyrimidin-4(5H)-one], for which the Ki at Rhesus PDE2A3 (setting [1]) was 11 nM; on human PDE2A1, 7.1 nM.
For the compound `CC(c1ccc(C(F)(F)F)c(F)c1)n1nc(CO)c2c(=O)[nH]c(N(C)C)nc21` (single isomer, unassigned) [Example 69, (S)- or (R)-6-(Dimethylamino)-1-(1-(3-fluoro-4-(trifluoromethyl)phenyl)ethyl)-3-(hydroxymethyl)-1H-pyrazolo[3,4-d]pyrimidin-4(5H)-one], the Ki at Rhesus PDE2A3 (setting [1]) and at human PDE2A1 was 0.27 nM in each case.
`CC(c1ccc(CC(F)(F)F)cc1)n1nc(CO)c2c(=O)[nH]c(N(C)C)nc21` (single isomer, unassigned) [Example 71, (S)- or (R)-6-(Dimethylamino)-3-(hydroxymethyl)-1-(1-(4-(2,2,2-trifluoroethyl)phenyl)ethyl)-1H-pyrazolo[3,4-d]pyrimidin-4(5H)-one]: the inhibitory constant (Ki) on Rhesus PDE2A3 (setting [1]) is 0.95 nM; on human PDE2A1 it was 0.75 nM.
The like results for `CCC(c1ccc(C(F)(F)F)cc1)n1nc(CO)c2c(=O)[nH]c(N(C)C)nc21` (single isomer, unassigned) [Example 73, (S)- or (R)-6-(Dimethylamino)-3-(hydroxymethyl)-1-(1-(4-(trifluoromethyl)phenyl)propyl)-1H-pyrazolo[3,4-d]pyrimidin-4(5H)-one] were, in that order, 0.25 nM and 0.16 nM.
Regarding `CN(C)c1nc2c(c(CO)nn2C(c2ccc(C(F)(F)F)cc2)C2CC2)c(=O)[nH]1` (single isomer, unassigned) [Example 74, (R)- or (S)-1-(Cyclopropyl(4-(trifluoromethyl)phenyl)methyl)-6-(dimethylamino)-3-(hydroxymethyl)-1H-pyrazolo[3,4-d]pyrimidin-4(5H)-one], the values for the Ki on Rhesus PDE2A3 (setting [1]) and on human PDE2A1 were 0.15 nM and 0.17 nM, respectively.
As to `CN(C)c1nc2c(c(CO)nn2C(c2ccc(C(F)(F)F)cc2)C2CC2)c(=O)[nH]1` (single isomer, unassigned) [Example 75, (S)- or (R)-1-(Cyclopropyl(4-(trifluoromethyl)phenyl)methyl)-6-(dimethylamino)-3-(hydroxymethyl)-1H-pyrazolo[3,4-d]pyrimidin-4(5H)-one], the figures for the Ki on Rhesus PDE2A3 (setting [1]) and at human PDE2A1 were 0.79 nM and 1.1 nM, respectively.
Consider `CC(C)c1ccc(C(C2CC2)n2nc(CO)c3c(=O)[nH]c(N(C)C)nc32)cc1` (single isomer, unassigned) [Example 76, (R)- or (S)-1-(Cyclopropyl(4-isopropylphenyl)methyl)-6-(dimethylamino)-3-(hydroxymethyl)-1H-pyrazolo[3,4-d]pyrimidin-4(5H)-one], for which the Ki on Rhesus PDE2A3 (setting [1]) stood at 0.21 nM; on human PDE2A1, 0.22 nM.
As for `CC(C)c1ccc(C(C2CC2)n2nc(CO)c3c(=O)[nH]c(N(C)C)nc32)cc1` (single isomer, unassigned) [Example 77, (S)- or (R)-1-(Cyclopropyl(4-isopropxlphenyl)methyl)-6-(dimethylamino)-3-(hydroxymethyl)-1H-pyrazolo[3,4-d]pyrimidin-4(5H)-one], the inhibition constant Ki stood at 0.084 nM on Rhesus PDE2A3 (setting [1]) and 0.069 nM on human PDE2A1.
For the compound `CC(C)c1ccc(C(C(C)C)n2nc(CO)c3c(=O)[nH]c(N(C)C)nc32)cc1` (single isomer, unassigned) [Example 78, (R)- or (S)-6-(Dimethylamino)-3-(hydroxymethyl)-1-(1-(4-isopropylphenyl)-2-methylpropyl)-1H-pyrazolo[3,4-d]pyrimidin-4(5H)-one], the inhibition constant Ki on Rhesus PDE2A3 (setting [1]) was 0.14 nM; at human PDE2A1 it was 0.11 nM.
Consider `CC(C)c1ccc(C(C(C)C)n2nc(CO)c3c(=O)[nH]c(N(C)C)nc32)cc1` (single isomer, unassigned) [Example 79, (S)- or (R)-6-(Dimethylamino)-3-(hydroxymethyl)-1-(1-(4-isopropylphenyl)-2-methylpropyl)-1H-pyrazolo[3,4-d]pyrimidin-4(5H)-one], for which the inhibitory constant (Ki) on Rhesus PDE2A3 (setting [1]) is 0.054 nM; on human PDE2A1, 0.044 nM.
